Data taken from article PMC7949122 (The Journal of Biological Chemistry, 2021).
Non-standard residues stand in square brackets, D forms with d. Residues, ends and D or L forms follow the SMILES beside them. Hyp = O=C(O)[C@@H]1C[C@@H](O)CN1; 2Thi = N[C@@H](Cc1cccs1)C(=O)O; Gly(N-cHex) = O=C(O)CNC1CCCCC1

Tests used:
[1] = biological target: T1, mutant human B2R(Ø) lacking AltB2R expression (Homo sapiens, UniProt P30411); test: Competitive displacement of [3H]-BK binding, living B2R(Ø)-transfected HEK293A cells; settings: n = 3
T1 construct: expressed in transfected cells; host or cells: HEK293A
T1 sequence (P30411 1-391): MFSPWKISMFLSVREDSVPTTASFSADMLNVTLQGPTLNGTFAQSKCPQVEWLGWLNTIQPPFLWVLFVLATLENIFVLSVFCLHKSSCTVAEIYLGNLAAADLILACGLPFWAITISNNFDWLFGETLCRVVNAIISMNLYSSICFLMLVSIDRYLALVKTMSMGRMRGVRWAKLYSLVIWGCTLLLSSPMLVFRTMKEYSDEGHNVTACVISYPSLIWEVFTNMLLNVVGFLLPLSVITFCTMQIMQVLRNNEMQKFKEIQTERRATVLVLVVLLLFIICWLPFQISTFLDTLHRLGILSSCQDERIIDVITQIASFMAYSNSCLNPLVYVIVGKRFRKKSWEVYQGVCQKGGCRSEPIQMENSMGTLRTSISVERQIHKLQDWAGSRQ
Procedure: Black and gray, negative controls with secondary antibodies only; blue, ^FlagB2R transfected cells; red, ^FlagB2R^(Ø) transfected cells. […] Reported Kd are expressed in nM. Bmax is expressed in fmol/10^6 cells.
Radioligand competition binding assay was performed using adherent living HEK293A cells transiently transfected with B2R or B2R^(Ø), as we previously described ([54]). […] Saturation binding assays were performed using adherent living HEK293A cells transiently transfected with B2R or B2R^(Ø). […] After the incubation time, cells were washed twice with ice-cold PBS, lysed with 200 μl of 0.1 N sodium hydroxide, and transferred into scintillation vials containing 4 ml scintillation liquid. The radioactivity was measured with a β-counter and data were analyzed using GraphPad 6.01 (GraphPad Software, Inc).

[2] = tested on: mutant human B2R(Ø) lacking AltB2R expression (ERK1/2 phosphorylation); test: ERK1/2 phosphorylation (AlphaLISA SureFire Ultra), B2R(Ø)- versus B2R-transfected HEK293A cells; format: cell-based; settings: 1 μM agonist, n = 2
Procedure: To consolidate the western blot data, AlphaLISA assays were also conducted in parallel in the same cell lines for the quantitative analyses of B2R-stimulated ERK1/2 phosphorylation (Fig. 5, B and C).
Quantitative densitometry analysis of pERK1/2 levels over time (top right). pERK/total ERK ratios were calculated for each time point.

[3] = biological target: T2, mutant human B2R(Ø) lacking AltB2R expression (β-arrestin2) (Homo sapiens, UniProt P30411); test: BRET β-arrestin2 recruitment at the plasma membrane, B2R(Ø)-transfected HEK293A cells; format: cell-based
T2 construct: expressed in transfected cells; host or cells: HEK293A
T2 sequence (P30411 1-391): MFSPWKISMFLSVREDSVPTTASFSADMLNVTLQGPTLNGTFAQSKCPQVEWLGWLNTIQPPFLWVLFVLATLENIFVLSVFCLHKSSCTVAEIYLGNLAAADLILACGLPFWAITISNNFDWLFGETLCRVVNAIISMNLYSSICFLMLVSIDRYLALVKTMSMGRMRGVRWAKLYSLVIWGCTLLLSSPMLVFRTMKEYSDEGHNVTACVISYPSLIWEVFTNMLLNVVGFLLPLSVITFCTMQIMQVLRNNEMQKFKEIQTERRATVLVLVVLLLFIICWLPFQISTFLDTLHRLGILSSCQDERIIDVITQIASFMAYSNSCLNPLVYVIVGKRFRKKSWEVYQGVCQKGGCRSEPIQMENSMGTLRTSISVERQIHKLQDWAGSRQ
From the text: (§1) D, β-arrestin2 recruitment at the plasma membrane after stimulation with NG291 in HEK293A cells transfected with B2R and B2R^(Ø) by following BRET proximity of β-arr2-RLuc2 and rGFP-CAAX. […] Note.
Since both G proteins and β-arrestins commonly participate in activation of MAPK pathways, we extended the BRET analysis to determine the effects of AltB2R on the efficacy of β-arrestin2 recruitment at the plasma membrane of HEK293A cells transfected with vectors coding for β-arrestin2-RLucII, rGFP-CAAX, and B2R or B2R^(Ø). BRET signals were monitored after addition of NG291.
(§2) BRET assays were performed as previously described ([56]). Briefly, HEK293A cells were grown in 96-well plates for 48 h after transient transfection with 10 μg BRET constructs (Gαq-RLuc2, Gβ1, and GFP10-Gγ1) (Gαi2-Rluc2, Gβ1, and GFP10-Gγ1) (Gαi3-Rluc2, Gβ1, and GFP10-Gγ1) (β-arrestin2-Rluc2 and rGFP-CAAX) and B2R or B2R^(Ø). Cells were washed twice with stimulation buffer (10 mM HEPES pH 7.4, 1 mM CaCl2, 0.5 mM MgCl2, 4.2 mM KCl, 146 mM NaCl, 5.5 mM glucose) and incubated for 1 h in 80 μl stimulation buffer at room temperature. […] BRET readings were collected in the […] (Rluc2) and […] (GFP10) windows, and BRET signal was calculated as a ratio of GFP10 on Rluc2. […]

human B2R (Gαi3) = biological target: T3, human B2R (Gαi3) (Homo sapiens, UniProt P30411); test: BRET G protein coupling Gαi3-RLuc2/GFP10-Gγ1, B2R-transfected HEK293A cells; format: cell-based; settings: HEK293-A; relative to maximum B2R-induced BRET response; mean ± SD, n = 4; †p < 0.05 vs B2R(Ø); read-out: Emax, Gαi3/Gγ1 dissociation, B2R
T3 construct: expressed in transfected cells; host or cells: HEK293A
T3 sequence (P30411 1-391): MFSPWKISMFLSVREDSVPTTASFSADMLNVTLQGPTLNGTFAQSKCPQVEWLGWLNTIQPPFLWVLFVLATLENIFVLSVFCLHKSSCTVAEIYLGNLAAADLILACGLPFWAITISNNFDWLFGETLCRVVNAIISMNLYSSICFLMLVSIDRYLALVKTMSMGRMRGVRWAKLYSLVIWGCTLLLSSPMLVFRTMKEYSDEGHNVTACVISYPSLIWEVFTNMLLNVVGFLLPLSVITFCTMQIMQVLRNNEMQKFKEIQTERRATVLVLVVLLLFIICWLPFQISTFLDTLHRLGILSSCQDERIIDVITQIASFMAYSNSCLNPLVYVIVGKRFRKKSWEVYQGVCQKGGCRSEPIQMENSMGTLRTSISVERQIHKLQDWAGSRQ
From the text: (§3) To test this hypothesis, we used live-cell bioluminescence resonance energy transfer (BRET) measurements to monitor the activation of G proteins by B2R. HEK293A cells were cotransfected with vectors coding for Gαq-RlucII or Gαi2/3-RlucII, Gβ, GFP10-Gγ1, and B2R or B2R^(Ø). In this experimental setting, the dissociation of Gαq-RlucII or Gαi2/3-RlucII from GFP10-Gγ1 results in a decrease of BRET signals. BRET data in Figure 6, A–C are presented relative to the maximum B2R-induced BRET response.
as §1, §2

[4] = biological target: T4, mutant human B2R(Ø) lacking AltB2R expression (Gαi2) (Homo sapiens, UniProt P30411); test: BRET G protein coupling Gαi2-RLuc2/GFP10-Gγ1, B2R(Ø)-transfected HEK293A cells; format: cell-based; settings: HEK293-A; relative to maximum B2R-induced BRET response; mean ± SD, n = 4; read-out: Emax, Gαi2/Gγ1 dissociation, B2R(Ø)
T4 construct: expressed in transfected cells; host or cells: HEK293A
T4 sequence (P30411 1-391): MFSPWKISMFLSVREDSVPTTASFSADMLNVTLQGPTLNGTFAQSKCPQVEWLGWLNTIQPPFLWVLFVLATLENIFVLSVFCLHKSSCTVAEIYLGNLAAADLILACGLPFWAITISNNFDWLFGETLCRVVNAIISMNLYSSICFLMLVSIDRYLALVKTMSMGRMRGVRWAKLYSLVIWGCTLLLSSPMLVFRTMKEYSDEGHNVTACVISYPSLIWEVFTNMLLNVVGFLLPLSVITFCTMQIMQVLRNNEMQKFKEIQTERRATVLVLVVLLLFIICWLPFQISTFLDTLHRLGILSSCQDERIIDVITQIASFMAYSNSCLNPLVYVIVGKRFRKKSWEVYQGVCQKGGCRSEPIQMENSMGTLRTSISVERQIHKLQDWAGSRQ
From the text: as §3, §1, §2

binding affinity, B2R versus B2R(Ø) [1]: same affinities
Emax ([3]; HEK293-A, β-arr2-RLuc2 and rGFP-CAAX, mean ± SD, n = 3): 88 ± 9%
Emax (human B2R (Gαi3)): 100 ± 21%
Emax [4]: 66 ± 12%
SMILES: N=C(N)NCCC[C@H](NC(=O)[C@H](Cc1cccs1)NC(=O)CN(C(=O)[C@H](CO)NC(=O)[C@H](Cc1cccs1)NC(=O)CNC(=O)[C@@H]1C[C@@H](O)CN1C(=O)[C@@H]1CCCN1C(=O)[C@@H](N)CCCNC(=N)N)C1CCCCC1)C(=O)O [NG291, [Hyp^3,Thi^5,^NChg^7,Thi^8]-BK] (H-RP[Hyp]G[2Thi]S[Gly(N-cHex)][2Thi]R-OH; N-terminus and C-terminus assumed)
maximal levels of phospho-ERK1/2 (AlphaLISA), B2R(Ø) versus B2R [2]: decreased maximal levels of phospho-ERK1/2
recruitment of β-arrestin2, cells expressing or not AltB2R ([3]; BRET, B2R versus B2R(Ø), BK: data not shown): no difference in the recruitment of β-arrestin2
